These results are taken from patent US7998977B2, “Inhibitors of AKT (protein kinase B)” (Eli Lilly and Company, priority 2006, dated 2011).

In general, IC50 refers to the concentration that gives 50% inhibition. As a reminder, the inhibition is the percentage by which the read-out fell short of the control.

Data set [1] can be described thus: Effect of initial solution pH on rate of precipitation. It counts as physicochemical. The conditions noted are these: room temperature. The source says: A pharmaceutical composition of 4-[5-(2-amino-ethanesulfonyl)-isoquinolin-7-yl]-phenol monohydrochloride hemihydrate comprises a non-reducing sugar and a pH adjusting agent. […] […]. Also, the rate at which precipitation takes place is pH dependent.

The test system of data set [2] is U87MG cells derived from a human glioblastoma. Kind of data set: In vivo tumor growth inhibition, U87MG glioblastoma xenograft. Also noted: species or system nude mice. The following applies: continuous infusion of 27 mg/kg/day for 4 days, measured at the end of the assay. On the procedure: (§1) In Vivo Tumor Growth Inhibition Studies
(§2) Exponentially growing U87MG cells derived from a human glioblastoma or H1155 cells derived from human non-small cell lung cancer are implanted subcutaneously in the rear flank of nude mice. Three days after tumor cell implants, microsurgery is performed to cannulate catheter for continuous infusion via jugular vein. Example 1, formulated in D5W (5% dextrose in water) at various concentrations, is then infused into mice next day at 40 μL/hr for 4 days. Tumors are measured twice weekly until the study is terminated, usually at 24 days after the initial implants. Tumor growth inhibition is calculated by dividing the average tumor volume of the treated group by that of the vehicle-treated group.

For data set [3], the target named is T1, Active human recombinant Akt1 (full-length) (Homo sapiens, UniProt P31749).
T1 construct: Active human recombinant Akt1 (full-length) purified from Sf9 insect cells; purchased Upstate Biotechnology, Inc; host or cells: Sf9 insect cells
T1 sequence (P31749 whole entry): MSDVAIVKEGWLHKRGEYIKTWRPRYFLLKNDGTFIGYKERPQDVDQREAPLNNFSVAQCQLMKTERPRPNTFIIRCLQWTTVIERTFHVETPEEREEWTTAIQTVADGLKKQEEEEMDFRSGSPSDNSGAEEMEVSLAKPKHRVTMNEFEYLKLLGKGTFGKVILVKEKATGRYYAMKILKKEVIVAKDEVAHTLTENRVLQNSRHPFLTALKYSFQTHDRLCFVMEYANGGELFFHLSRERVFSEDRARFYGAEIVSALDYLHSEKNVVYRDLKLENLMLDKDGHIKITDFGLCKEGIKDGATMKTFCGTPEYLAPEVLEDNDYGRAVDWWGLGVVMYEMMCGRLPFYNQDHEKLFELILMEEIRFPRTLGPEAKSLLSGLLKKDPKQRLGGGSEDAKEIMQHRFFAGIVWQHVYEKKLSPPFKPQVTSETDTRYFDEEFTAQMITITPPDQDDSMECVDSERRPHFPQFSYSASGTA
Kind of data set: Akt1 Phosphorylation Assay (competitive fluorescence polarization immunoassay, FPIA). It counts as biochemical. The conditions noted are these: 20 μM ATP, 60 min at room temperature, n=3; read-out: IC50, inhibition of Akt1 phosphorylation. The source says: Akt1 Phosphorylation Assay
The assay measures the phosphorylation of PKC alpha pseudo-substrate peptide by a Competitive Fluorescence Polarization Immunoassay (FPIA). The assay indirectly measures the concentration of phospho-peptide product formed in a reaction by measuring the change in the intensity of polarized light emitted from a fluorescently-labeled tracer peptide when displaced from a phospho-specific antibody by the phospho-peptide product. Calibration with a standard curve yields quantitative results.
Active human recombinant Akt1 (full-length) purified from Sf9 insect cells is obtained from Upstate Biotechnology, Inc. Peptide Substrate (M.W.1561) is purchased. […]
After 60 min at room temperature the reaction is terminated by adding 25 μL of Quench/Detection Mix containing 260 mM EDTA, 3.4 nM Fluorescein Tracer, and 7.5 nM Anti-Phosphoserine Antibody. The plates are incubated in darkness at room temperature for more than 3 hr, and then fluorescence polarization (at λex=485 nm, […]) is read using a Tecan Ultra plate reader. The concentration of phosphorylated product per well is calculated from millipolarization (mP) units using a prepared peptide competitor dilution series as a standard curve.
For orientation: In fluorescence polarisation assays a small probe gives low polarisation when free and higher when bound to something large.

The subject of data set [4] is Phospho-GSK3b (pGSK3b), a target of Akt in cells. As to the kind of experiment: Cell-based ELISA (cELISA) for detection of phospho-GSK3b in U87MG cells. The conditions noted are these: Homo sapiens, U-87 MG, 2 hr treatment, n=8, read-out: IC50, inhibition of pGSK3b. On the procedure:
Cell-Based ELISA (cELISA) for the Detection of Phospho-GSK3b (pGSK3b)
Exponentially grown U87MG cells derived from a human glioblastoma are seeded into 96-well plates and incubated overnight at 37° C. with 5% CO2. Ten concentrations of the compound of Example 1 are prepared from a 4 mM stock (in 100% DMSO) by 1:2 serial dilutions into the culture media. Equal volume of each of the serial dilutions is added directly to the cells. Treatment is stopped 2 hr later. At the end of the treatment, the culture media is removed, and the cells are washed once with ice-cold phosphate-buffered saline (PBS). The cells are fixed in PREFER according to vendor's procedure, followed by rinses in PBS/0.1% SDS and PBS/0.1% Triton X-100®, then overnight incubation in SEA Block Blocking buffer. The blocking step is followed by an overnight incubation of the cells with a rabbit antibody against pGSK3b/Ser9, followed by a goat anti-rabbit IgG. The pGSK3b is detected by SuperSignal ELISA Femto following the vendor's procedure.

Data set [5] deals with H1155 cells derived from human non-small cell lung cancer. As to the kind of experiment: In vivo tumor growth inhibition, H1155 non-small cell lung cancer xenograft. Also noted: species or system nude mice. The conditions noted are these: continuous infusion of 24 mg/kg/day for 4 days, measured at the end of the assay. On the procedure: as §1, §2
In another data set the test system is Phospho-GSK3b (pGSK3b). Kind of data set: In vivo target inhibition by a single IV injection, U87MG tumors in nude mice. The conditions noted are these: Mus musculus, U-87 MG, U87MG glioblastoma tumors, single IV injection of 25 mg/kg, at 1 hour, read-out: inhibition of pGSK3b in tumor. On the procedure: In Vivo Target Inhibition Studies
In Vivo Target Inhibition by a Single IV Injection:
Exponentially growing U87MG cells derived from a human glioblastoma are implanted subcutaneously in the rear flank of nude mice. When the tumors reach the size of 200-250 mm^3, compounds are administered to the animals by a single IV injection in a dose-response study or in a time-course study. At the end of each treatment, animals are asphyxiated with CO2. Tumors are harvested by surgical excision, quickly frozen in liquid nitrogen and stored at −80° C. until analysis. Sera are prepared from blood harvested from the heart by cardiac puncture and stored at −80° C. until analysis.
The Akt inhibitor is extracted from serum with acetonitrite/methanol and analyzed alongside an internal standard by LC/MS/MS. Tumors are homogenized in 2 volumes of a lysis buffer containing 25 mM Tris (pH 7.5), Roche complete protease inhibitors, and 1 mM vanadate with Powergen 125 homogenizer, then sequentially passed thorough an 18 gauge needle and a 23 gauge needle. Soluble cytoplasmic extracts are collected from the supernatant fraction after the lysates are centrifuged for 30 minutes at 20,000×g. Protein concentrations in the cytoplasmic extracts are determined with a BCA kit. Phospho-GSK3b (pGSK3b) in the soluble extracts is analyzed with the ELISA Kit.

SMILES strings stand for the structures. Structures can show the parent of a compound that is named as a salt.

Take `Cl.Cl.NCCS(=O)(=O)c1cc(-c2ccc(O)cc2)cc2cnccc12.NCCS(=O)(=O)c1cc(-c2ccc(O)cc2)cc2cnccc12.O` [4-[5-(2-Amino-ethanesulfonyl)-isoquinolin-7-yl]-phenol Monohydrochloride Hemihydrate]: the “Precipitation (ppt)” value was “ppt after 24 hr” in data set [1] (0.001 N HCl/3% mannitol, initial pH 4.20, approx. 15 mg/mL); “ppt after 36 hr” in data set [1] (0.0025 N HCl/3% mannitol, initial pH 3.91, approx. 15 mg/mL); “ppt after 48 hr” in data set [1] (0.005 N HCl/3% mannitol, initial pH 3.58, approx. 15 mg/mL); “no ppt up to 96 hours” in data set [1] (0.01 N HCl/3% mannitol, initial pH 3.19, approx. 15 mg/mL); “no ppt up to 96 hours” in data set [1] (0.05 N HCl/3% mannitol, initial pH 1.68, approx. 15 mg/mL).

As for `NCCS(=O)(=O)c1cc(-c2ccc(O)cc2)cc2cnccc12` [Example 1, 4-[5-(2-Amino-ethanesulfonyl)-isoquinolin-7-yl]-phenol di-hydrochloride Salt], the tumor growth inhibition in data set [2] is recorded as 50%; in data set [5], 63%. The IC50 in data set [3] was 45 nM; in data set [4], 2040 nM. Also, the inhibition at 25 mg/kg with Phospho-GSK3b (pGSK3b) was found to be 76%.
